US9504671B2, “Pharmaceutical compositions of spiro-oxindole compound for topical administration and their use as therapeutic agents” (Xenon Pharmaceuticals Inc., priority 2010, dated 2016)
Values joined by “and” are separate entries in the source; they are usually repeats but may differ in a detail not shown here. Equal values may be shown once.

Columns and labels:
[1] = test system: STZ-induced neuropathic pain model; assay: STZ model of diabetic neuropathy, von Frey; assay type: in vivo, male Sprague-Dawley rats; conditions: 4% (w/w) topical composition, 50 mg on left foot, 30 minutes post-dosing, p<0.05
Text: This study evaluates the efficacy of a pharmaceutical composition of the invention in the STZ-induced neuropathic pain model in male Sprague-Dawley rats, following acute dosing, as compared with a 5% (w/v) topical Lidocaine (Xylocaine®) and a 1.16% (w/v) topical Diclofenac (Voltaren®). A rodent model of painful peripheral diabetic neuropathy (PDN) that mimics human condition was created by inducing a diabetic state in the rat through the ablation of the insulin producing pancreatic beta cells. A single streptozotocin (STZ) injection destroys beta cells in rats and produces a diabetic state that over time progresses to painful Peripheral Diabetic Neuropathy (PDN).
Streptozotocin (STZ) was dissolved in citrate buffer (20 mM, pH 4.5) and administered at a dose of 60 mg/Kg, intraperitoneal, to induce pancreatic beta-cell death. Blood glucose level was measured once a week following injection, using the AccuSoft Blood Glucose Monitoring System. […] Hyperalgesia and allodynia, which are signs of diabetic neuropathic pain, were monitored using the von Frey test as described below. Von Frey measurements were recorded from both left and right paws. Only those with significant hyperalgesia as determined by reduced threshold, measured in grams, of paw withdrawal to the von Frey filament were enrolled in the study. […] During this time their health status was closely monitored.
The animals were randomly divided into 4 test groups (n=7 animals/group) including a vehicle control, a 5% (w/v) Lidocaine (Xylocaine®), a 1.16% (w/v) Diclofenac (Voltaren®), and a pharmaceutical composition with 4% (w/w) COMPOUND A. After baseline measurement, 50 mg of the test composition was applied on the entire left foot. […] The paw withdrawal thresholds of animals from mechanical tactile stimuli were measured using the Electrovonfrey anesthesiometer (Model 2290, IITC Life Science, Woodland Hills, Calif.). […] The force (g) required to elicit a crisp withdrawal response was recorded before dosing as a baseline measurement, and at 30 minutes post-dosing. […]

[2] = test system: CCI neuropathic pain model; assay: efficacy of topical versus oral administration, Chronic Constriction Injury, von Frey; assay type: in vivo, male Sprague Dawley rats; conditions: p<0.001 vs vehicle
Text: The Chronic Constriction Injury (CCI) model, an established neuropathic pain model in the rat, is used in this study to compare the levels of efficacy and systemic exposure of COMPOUND A between the topical and oral administration in male rats.
A peripheral neuropathy was induced in rats by placing loose constrictive ligatures around the common sciatic nerve as described by Bennett G J, and Xie Y-K., Pain, (1988) 33: pp. 87-107. Eight-week old male Sprague Dawley rats were anaesthetized with 3.5% isoflurane, and a 3 cm incision was made through the skin and fascia at the mid-thigh level of the animal's left hind leg using a no. 10 scalpel blade. […]
A painful neuropathy was allowed to develop in the ipsilateral leg as determined by lower paw withdrawal thresholds to a mechanical stimulus. Only those with significant hyperalgesia as determined by reduced threshold, measured in grams, to paw withdrawal to the von Frey filament were enrolled in the study.
The paw withdrawal thresholds of animals from mechanical tactile stimuli were measured using the Model 2290 Electrovonfrey anesthesiometer (IITC Life Science, Woodland Hills, Calif.). […] After 15 minutes of accommodation in this enclosure, a von Frey hair was applied perpendicularly to the plantar surface of the ipsilateral hind paws of the animals, with sufficient force, measured in grams, to elicit a crisp response of the paw. […]

[3] = systemic plasma concentration after topical or oral dosing in CCI rats (HPLC/MS/MS); assay type: in vivo, male Sprague Dawley rats; conditions: 8% (w/w) topical vs 25 mg/Kg oral, blood 10-15 minutes after efficacy time points, p<0.0001
Experimental: Blood samples were taken from the same animals immediately after withdrawal threshold measurements using the following procedure at approximately 10-15 minutes after their respective efficacy time points. The rats were bled by jugular vein puncture while under anaesthesia. The time at which each blood sample was drawn, relative to the time of dosing, was recorded. Each blood sample (˜150 μL) was collected into a heparin-coated, labelled microvette tube containing 10 μL of heparin (100 Units) and placed on ice immediately. The blood samples were centrifuged at 4° C. to separate the plasma. The plasma was transferred to labelled tubes and snap-frozen in liquid nitrogen for storage at −80° C. At the time of analysis, the plasma was thawed and extracted using solid phase extraction, and the plasma drug concentration was quantified by HPLC/MS/MS.

SMILES: O=C1N(Cc2ccc(C(F)(F)F)o2)c2ccccc2[C@]12COc1cc3c(cc12)OCO3 [COMPOUND A, (S)-1′-{[5-(trifluoromethyl)furan-2-yl]methyl}spiro[furo[2,3-f][1,3]benzodioxole-7,3′-indol]-2′(1′H)-one]
- paw withdrawal threshold of treated paw, percent mean change from baseline (CFB) [1]: 44.9%
- paw withdrawal threshold, percent mean change from baseline (CFB) ([2]; 25 mg/Kg oral gavage, 60 minutes post-dosing): 44.3% and 44%
- paw withdrawal threshold, percent mean change from baseline (CFB) ([2]; 8% (w/w) topical, 50 mg on ipsilateral ankle and foot, 30 minutes post-dosing): 47.1% and 47%
- plasma level in topical dosage group lower than in oral dosage group (fold) [3]: ~20 ×
